Assays:
[1] = Cytotoxicity in AML12HBV10 cells (MTT assay); type: cell-based, murine; conditions: mouse, concentration that reduces viability by 50%, serial dilution 50 μM to 0.39 μM
Method: Determination of cytotoxicity of compounds of the disclosure in AML12HBV10 cells: To determine the cytotoxicity of the compounds, AML12HBV10 cells were seeded into 96-well plates at a density of 2×10^4 cells per well and cultured in DMEM/F12 media with 10% fetal bovine serum in the absence of tetracycline to allow pgRNA transcription and HBV DNA replication. One day after seeding, cells were left untreated or treated with a serial dilution of testing compounds, ranging from 50 μM to 0.39 μM, for 48 hours. The cell viability was measured by a MTT assay, following procedure provided by the manufacturer (Promega). The cytotoxicity of a compound was expressed as the concentration of compound that reduces the viability of the cells by 50% (CC50).

[2] = system: encapsidated pgRNA; test: Encapsidated pgRNA by Northern blot in AML12HBV10 cells; type: cell-based, Hepatitis B virus (HBV); conditions: 2 days, FIG. 1 panel C
Method: (§1) FIG. 1. Antiviral mechanism of the compounds of the present invention. AML12HBV10 cells were left untreated (NT) or treated with the indicated concentrations of the compounds of the disclosure Compound 6 and Compound 19, respectively, for 2 days. Bay-4109 (3 µM) or AT-61 (25 µM) served as positive controls. (A) Intracellular viral RNA was determined by Northern blot hybridization. Ribosomal RNA served as a loading control. (B) The total amounts of nucleocapsids were determined by a particle gel assay. (C) Encapsidated pgRNA were extracted and measured by Northern blot. (D) Nucleocapsid-associated HBV DNA was quantified by alkaline-treatment of nucleocapsids on the membrane following the particle gel assay and hybridized with a HBV-specific riboprobe. (E) HBV DNA replication intermediates were extracted and determined by Southern blot hybridizations.
Determination of encapsidated pgRNA: AML12HBV10 cells were lysed by addition of 600 μl of lysis buffer (50 mM Tris-HCl [pH 7.5], 1 mM EDTA, 150 mM NaCl, 1% NP-40) into each well of 12-well plates. The nuclei were removed by centrifugation at 5,000 g for 10 minutes. One-half of the sample was mixed with 6 U of micrococcal nuclease (Pharmacia) and 15 μl of 100 mM CaCl2 and incubated for 15 minutes at 37° C. to digest free nucleic acids. The reaction was stopped with 6 μl of 0.5 M EDTA, and capsids were precipitated by adding 125 μl of 35% polyethylene glycol 8000 in 1.75 M NaCl to the reaction and incubating in ice for 30 minutes, followed by centrifugation at 6,000 g for 10 minutes at 4° C. Pellets were re-suspended in 50 μl of TNE buffer (10 mM Tris-HCl [pH 8], 100 mM NaCl, 1 mM EDTA). pgRNA was extracted by the addition of 1 ml of Trizol reagent. The encapsidated pgRNA were electrophoresed through a 2.2 M formaldehyde-1% agarose gel, transferred to a nylon membrane, and immobilized by UV cross-linking (Stratagene). Hybridization was performed with an alpha-^32P-UTP labeled riboprobe specific for plus strand of HBV genome.

[3] = system: capsid-associated HBV DNA; test: Capsid-associated HBV DNA and DNA replication intermediates in AML12HBV10 cells; type: cell-based, Hepatitis B virus (HBV); conditions: 2 days, FIG. 1 panels D and E
Method: as §1
Procedures of viral capsids and nucleocapsid-associated DNA analysis: AML12HB10 cells were lysed by addition of 300 μl buffer containing 10 mM Tris-HCl (pH7.6), 100 mM NaCl, 1 mM EDTA and 0.1% NP-40 to each well of 12-well plate. Cell debries were removed by centrifugation at 5000 g for 10 minutes. Ten microliters of the clarified cell lysates were fractionated by electrophoresis through nondenaturing 1% agarose gels and transferred to a nitrocellulose filter by blotting with TNE buffer (10 mM Tris-HCl, pH7.6; 150 mM NaCl and 1 mM EDTA). HBV capsids were detected by probing the membrane with an antibody against HBV core protein (DAKO). […] To detect capsid associated HBV DNA, the membrane were treated with buffer containing 0.5N NaOH and 1.5 M NaCl for 5 minutes and followed by neutralization with buffer containing 1 M TRIS-HCl and 1.5M NaCl for 5 minutes. The viral DNA was detected by hybridization with a α-^32P-UTP (800 Ci/mmol, Perkin Elmer) labeled minus strand specific full-length HBV riboprobe (Xu et al.).
To analyze the HBV DNA replication intermediates, cells were lysed by adding into each well of the 12-well plates 0.5 ml of lysis buffer containing 10 mM Tris-HCl (pH 8.0), 1 mM EDTA, 1% NP40 and 2% sucrose and incubating at 37° C. for 10 minutes. Cell debris and nuclei were removed by centrifugation and the supernatant was mixed with 130 μl of 35% polyethylene glycol (PEG) 8000 containing 1.5 M NaCl. After 1 hour incubation in ice, viral nucleocapsids were pelleted by centrifugation at 6,000×g for 5 minutes at 4° C., followed by 1 hour digestion at 37° C. in 400 μl of digestion buffer containing 0.5 mg/ml pronase (Calbiochem), 0.5% SDS, 150 mM NaCl, 25 mM Tris-HCl (pH 8.0) and 10 mM EDTA. The digestion mixture was extracted twice with phenol and DNA was precipitated with ethanol, dissolved in TE buffer (10 mM Tris-HCl, pH 8.0; 0.1 mM EDTA). […]

**Q.** Which CC50 at 48 h [1] does the source give for `O=C(Nc1cccc(Cl)c1)c1scc2c1OCCO2` [Entry 6] here?
**A.** Its CC50 at 48 h is greater than 50 µM.

**Q.** What about the “level of encapsidated pgRNA” value [2] of the same compound?
**A.** Its value is “dose-dependently reduced”.

**Q.** What about the “capsid-associated HBV DNA / DNA synthesis” value [3] of the same compound?
**A.** Its value is “reduced encapsidated pgRNA and capsid-associated HBV DNA in a dose-dependent manner”.

From patent US20190092720A1, “FUNCTIONALIZED BENZAMIDE DERIVATIVES AS ANTIVIRAL AGENTS AGAINST HBV INFECTION” (BARUCH S. BLUMBERG INSTITUTE, priority 2012, published 2019)
